We go through 20 compounds from patent US20210300940A1 (Merck Patent GmbH, priority 2018, published 2021).

The target in one test is T1, TLR8 (Homo sapiens, UniProt Q9NR97).
T1 construct: expressed in transfected cells; host or cells: HEK/293 reporter cells (NF-kB luciferase)
T1 sequence (Q9NR97 27-1041): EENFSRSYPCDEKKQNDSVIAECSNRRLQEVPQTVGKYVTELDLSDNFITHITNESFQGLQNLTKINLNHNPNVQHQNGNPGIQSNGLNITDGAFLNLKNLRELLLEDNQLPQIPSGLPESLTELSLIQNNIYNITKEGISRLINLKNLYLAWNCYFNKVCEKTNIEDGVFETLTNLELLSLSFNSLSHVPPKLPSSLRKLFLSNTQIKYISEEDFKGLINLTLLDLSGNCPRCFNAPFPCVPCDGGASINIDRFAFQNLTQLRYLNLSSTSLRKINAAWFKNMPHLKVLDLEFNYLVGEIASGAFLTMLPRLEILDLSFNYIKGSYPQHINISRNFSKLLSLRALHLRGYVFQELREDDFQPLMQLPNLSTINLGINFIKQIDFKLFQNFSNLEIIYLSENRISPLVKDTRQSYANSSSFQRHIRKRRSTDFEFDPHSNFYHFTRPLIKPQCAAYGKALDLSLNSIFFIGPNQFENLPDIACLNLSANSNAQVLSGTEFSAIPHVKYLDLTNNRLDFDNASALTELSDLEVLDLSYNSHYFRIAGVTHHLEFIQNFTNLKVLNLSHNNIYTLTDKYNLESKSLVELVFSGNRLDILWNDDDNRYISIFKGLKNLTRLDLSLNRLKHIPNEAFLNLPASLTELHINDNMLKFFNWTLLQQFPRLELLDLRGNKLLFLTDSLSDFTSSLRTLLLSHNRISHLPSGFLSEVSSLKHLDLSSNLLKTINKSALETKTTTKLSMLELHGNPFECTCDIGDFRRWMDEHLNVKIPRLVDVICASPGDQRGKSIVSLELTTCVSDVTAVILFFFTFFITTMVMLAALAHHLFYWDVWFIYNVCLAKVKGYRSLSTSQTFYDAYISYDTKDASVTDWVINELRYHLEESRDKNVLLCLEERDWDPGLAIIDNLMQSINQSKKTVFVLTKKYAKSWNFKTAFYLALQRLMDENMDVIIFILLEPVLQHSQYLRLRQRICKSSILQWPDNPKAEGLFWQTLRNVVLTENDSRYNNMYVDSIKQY
Description: HEK/293 TLR8 Cell Assay. The format is cell-based. The settings on record: HEK cells, R848 agonist 30 uM final concentration, Steady-Glo readout; read-out: TLR8 potency.

The next test deals with T2, TLR7 (Homo sapiens, UniProt Q9NYK1).
T2 construct: expressed in transfected cells; host or cells: HEK/293 cells carrying TLR7 and an NF-kB luciferase reporter
T2 sequence (Q9NYK1 27-1049): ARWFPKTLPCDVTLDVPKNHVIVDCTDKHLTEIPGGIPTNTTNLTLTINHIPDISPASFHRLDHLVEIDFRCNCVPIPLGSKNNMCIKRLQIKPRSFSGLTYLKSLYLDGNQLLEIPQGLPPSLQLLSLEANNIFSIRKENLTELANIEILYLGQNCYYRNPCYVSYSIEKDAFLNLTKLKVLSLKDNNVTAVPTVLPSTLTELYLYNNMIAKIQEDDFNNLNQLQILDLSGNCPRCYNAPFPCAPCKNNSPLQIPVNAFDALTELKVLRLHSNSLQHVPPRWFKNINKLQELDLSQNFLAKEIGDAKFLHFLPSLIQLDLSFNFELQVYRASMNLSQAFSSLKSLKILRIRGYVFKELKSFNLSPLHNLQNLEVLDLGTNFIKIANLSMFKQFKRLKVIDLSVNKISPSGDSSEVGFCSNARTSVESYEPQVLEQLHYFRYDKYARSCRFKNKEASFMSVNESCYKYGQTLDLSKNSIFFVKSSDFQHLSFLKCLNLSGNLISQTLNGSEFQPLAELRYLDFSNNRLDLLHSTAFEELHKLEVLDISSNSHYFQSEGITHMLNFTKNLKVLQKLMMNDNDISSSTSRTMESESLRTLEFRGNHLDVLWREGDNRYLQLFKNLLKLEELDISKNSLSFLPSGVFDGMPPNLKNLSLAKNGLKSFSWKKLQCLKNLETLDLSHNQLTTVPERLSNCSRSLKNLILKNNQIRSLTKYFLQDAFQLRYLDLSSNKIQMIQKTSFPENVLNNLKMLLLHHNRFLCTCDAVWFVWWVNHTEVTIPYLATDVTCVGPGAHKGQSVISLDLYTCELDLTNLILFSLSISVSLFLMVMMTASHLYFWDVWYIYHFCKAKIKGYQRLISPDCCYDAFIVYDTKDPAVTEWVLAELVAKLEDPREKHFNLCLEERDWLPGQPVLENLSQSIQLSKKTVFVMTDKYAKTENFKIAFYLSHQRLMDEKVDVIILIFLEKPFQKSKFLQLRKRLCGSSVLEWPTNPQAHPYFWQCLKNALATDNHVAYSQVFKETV
Briefly: HEK/293 TLR7 Cell Assay. It is filed as cell-based. The settings on record: TLR7/NFKb HEK cells, R848 agonist 10 uM final concentration, Steady-Glo readout; read-out: TLR7 potency. An outline of the steps:
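TLR7/NF-κB reporter HEK293 cells, 5000/well, cultured 24 h, then preincubated 30 min with compound before R848 agonist (10 uM final). After 5 h stimulation, Steady-Glo luciferase luminescence read.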

Structures are written as SMILES. Counter-ions that a name gives are not always drawn.

Consider `CN1CCC(O)(CC(=O)N[C@@H]2C[C@H](C(F)(F)F)CN(c3ccc(C(F)(F)F)c4nccnc34)C2)CC1` [Example 63, 2-(4-hydroxy-1-methylpiperidin-4-yl)-N-[(3R,5S)-5-(trifluoromethyl)-1-[8-(trifluoromethyl)quinoxalin-5-yl]piperidin-3-yl]acetamide], for which the IC50 on TLR8 and on TLR7 was < 75 nM in each case.

Take `CN(C)CCC(=O)N[C@@H]1C[C@H](C(F)(F)F)CN(c2ccc(C(F)(F)F)c3ncccc23)C1` [Example 64, 3-(dimethylamino)-N-[(3R,5S)-5-(trifluoromethyl)-1-[8-(trifluoromethyl)quinolin-5-yl]piperidin-3-yl]propanamide]: the IC50 at TLR8 and at TLR7 was < 75 nM in each case.

Consider `CN(C)CCC(=O)N[C@@H]1C[C@H](C(F)(F)F)CN(c2ccc(C#N)c3ncccc23)C1` [Example 65, N-[(3R,5S)-1-(8-cyanoquinolin-5-yl)-5-(trifluoromethyl)piperidin-3-yl]-3-(dimethylamino)propanamide], for which the IC50 at TLR8 and at TLR7 was < 75 nM throughout.

With `CN1CCN(CC(=O)N[C@@H]2C[C@H](C(F)(F)F)CN(c3ccc(C(F)(F)F)c4ncccc34)C2)CC1` [Example 66, 2-(4-methylpiperazin-1-yl)-N-[(3R,5S)-5-(trifluoromethyl)-1-[8-(trifluoromethyl)quinolin-5-yl]piperidin-3-yl]acetamide], the IC50 at TLR8 and at TLR7 was < 75 nM each time.

`CN1CCC(O)(CC(=O)N[C@@H]2C[C@H](C(F)(F)F)CN(c3ccc(C(F)(F)F)c4ncccc34)C2)CC1` [Example 67, 2-(4-hydroxy-1-methylpiperidin-4-yl)-N-[(3R,5S)-5-(trifluoromethyl)-1-[8-(trifluoromethyl)quinolin-5-yl]piperidin-3-yl]acetamide]: the IC50 on TLR8 and on TLR7 was < 75 nM each time.

`Cc1c(F)cc(N2C[C@H](NC(=O)CC3(O)CCN(C)CC3)C[C@H](C(F)(F)F)C2)c2cccnc12` [Example 68, hydrochloride]: the IC50 at TLR8 and at TLR7 was < 75 nM each time.

`Cc1c(F)cc(N2C[C@@H](C)C[C@@H](NC(=O)CC3(O)CCN(C)CC3)C2)c2cccnc12` [Example 69, N-[(3R,5S)-1-(7-fluoro-8-methylquinolin-5-yl)-5-methylpiperidin-3-yl]-2-(4-hydroxy-1-methylpiperidin-4-yl)acetamide]: the IC50 on TLR8 and at TLR7 was < 75 nM in each case.

Turning to `Cc1ncc(N2C[C@H](NC(=O)CN3CCN(C)CC3)C[C@H](C(F)(F)F)C2)c2cccnc12` [Example 70, N-[(3R,5S)-1-(8-methyl-1,7-naphthyridin-5-yl)-5-(trifluoromethyl)piperidin-3-yl]-2-(4-methylpiperazin-1-yl)acetamide], the IC50 at TLR8 and at TLR7 was 75 to 150 nM in each case.

As to `CN1CCC(F)(CC(=O)N[C@@H]2C[C@H](C(F)(F)F)CN(c3ccc(C#N)c4ncncc34)C2)CC1` [Example 71, N-[(3R,5S)-1-(8-cyanoquinazolin-5-yl)-5-(trifluoromethyl)piperidin-3-yl]-2-(4-fluoro-1-methylpiperidin-4-yl)acetamide], the IC50 on TLR8 is 75 to 150 nM; at TLR7, < 75 nM.

As to `C[C@H]1C[C@@H](NC(=O)CC2(O)CCN(C)CC2)CN(c2ccc(C#N)c3nccnc23)C1` [Example 72, N-[(3R,5S)-1-(8-cyanoquinoxalin-5-yl)-5-methylpiperidin-3-yl]-2-(4-hydroxy-1-methylpiperidin-4-yl)acetamide hydrochloride], the IC50 on TLR8 and on TLR7 was < 75 nM each time.

Turning to `CN1CCC(O)(CC(=O)N[C@@H]2C[C@H](C(F)(F)F)CN(c3ccc(C#N)c4ncccc34)C2)CC1` [Example 73, N-[(3R,5S)-1-(8-cyanoquinolin-5-yl)-5-(trifluoromethyl)piperidin-3-yl]-2-(4-hydroxy-1-methylpiperidin-4-yl)acetamide], the IC50 at TLR8 is > 150 nM; on TLR7 it was 75 to 150 nM.

In the case of `Cc1cc(CC(=O)N[C@@H]2C[C@H](C)CN(c3ccc(C#N)c4nccnc34)C2)on1` [Example 74, N-[(3R,5S)-1-(8-cyanoquinoxalin-5-yl)-5-methylpiperidin-3-yl]-2-(3-methyl-1,2-oxazol-5-yl)acetamide], the IC50 on TLR8 and at TLR7 was < 75 nM in each case.

Regarding `CN(C)CCC(=O)N[C@@H]1C[C@H](C(F)(F)F)CN(c2ccc(C#N)c3nccnc23)C1` [Example 75], the IC50 on TLR8 and on TLR7 was < 75 nM in each case.

As to `CN1CCC(O)(CC(=O)N[C@@H]2C[C@H](C(F)(F)F)CN(c3ccc(C#N)c4nccnc34)C2)CC1` [Example 76, N-[(3R,5S)-1-(8-cyanoquinoxalin-5-yl)-5-(trifluoromethyl)piperidin-3-yl]-2-(4-hydroxy-1-methylpiperidin-4-yl)acetamide], the IC50 was < 75 nM at TLR8 and 75 to 150 nM at TLR7.

As to `CN1CCC(F)(CC(=O)N[C@@H]2C[C@H](C(F)(F)F)CN(c3ccc(C#N)c4nccnc34)C2)CC1` [Example 77], the IC50 on TLR8 and at TLR7 was < 75 nM each time.

In the case of `C[C@H]1C[C@@H](NC(=O)CCN(C)C)CN(c2ccc(C(F)(F)F)c3nccnc23)C1` [Example 78], the IC50 on TLR8 and on TLR7 was < 75 nM in each case.

On to `C[C@H]1C[C@@H](NC(=O)CCN(C)C)CN(c2ccc(C#N)c3nccnc23)C1` [Example 79], for which the IC50 at TLR8 and on TLR7 was < 75 nM in each case.

For the compound `C[C@H]1C[C@@H](NC(=O)CC2(O)CCN(C)CC2)CN(c2ccc(C(F)(F)F)c3nccnc23)C1` [Example 80, 2-(4-hydroxy-1-methylpiperidin-4-yl)-N-[(3R,5S)-5-methyl-1-[8-(trifluoromethyl)quinoxalin-5-yl]piperidin-3-yl]acetamide hydrochloride], the IC50 at TLR8 and on TLR7 was < 75 nM throughout.

`CN1CCN(CC(=O)N[C@@H]2C[C@H](C(F)(F)F)CN(c3ccc(C#N)c4ncccc34)C2)CC1` [Example 82, N-((3R,5S)-1-(8-cyanoquinolin-5-yl)-5-(trifluoromethyl)piperidin-3-yl)-2-(4-methylpiperazin-1-yl)acetamide]: the IC50 at TLR8 is < 75 nM; on TLR7 it was 75 to 150 nM.

Regarding `C[C@H]1C[C@@H](NC(=O)CC2(F)CCN(C)CC2)CN(c2ccc(C(F)(F)F)c3ncccc23)C1` [Example 83, 2-(4-fluoro-1-methylpiperidin-4-yl)-N-[(3R,5S)-5-methyl-1-[8-(trifluoromethyl)quinolin-5-yl]piperidin-3-yl]acetamide], the IC50 at TLR8 and at TLR7 was < 75 nM each time.
